{
  "source": "ChEMBL document CHEMBL6127089",
  "about": "“Novel non-peptide uracil-derived human gonadotropin-releasing hormone receptor antagonists” (Eur J Med Chem, 2024)",
  "data": [
    {"molecular_target": "T1, Gonadotropin-releasing hormone receptor (Homo sapiens, UniProt P30968)", "T1 sequence (P30968 whole entry)": "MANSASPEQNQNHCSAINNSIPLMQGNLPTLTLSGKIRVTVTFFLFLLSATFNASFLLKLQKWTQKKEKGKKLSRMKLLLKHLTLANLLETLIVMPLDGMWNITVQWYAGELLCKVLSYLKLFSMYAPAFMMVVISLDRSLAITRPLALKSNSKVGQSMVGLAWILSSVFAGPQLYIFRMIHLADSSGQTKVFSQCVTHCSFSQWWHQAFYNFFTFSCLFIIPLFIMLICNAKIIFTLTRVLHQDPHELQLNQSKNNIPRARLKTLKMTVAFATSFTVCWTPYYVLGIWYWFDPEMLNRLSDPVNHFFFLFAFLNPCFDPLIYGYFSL", "assay": "Antagonist activity at wild type HA-tagged human GnRH1 receptor expressed in HEK293T cells assessed as inhibition of GnRH peptide-stimulated IP1 accumulation by measuring GnRH peptide EC50 at 100 uM pretreated for 1 hr followed by stimulation with GnRH peptide for 1 hr (reference value: 2.5 nM)", "assay_type": "cell-based", "units": {"EC50": "nM"}, "values": [
      {"compound": "COc1cccc(-c2c(N[C@@H](CSCCCC(=O)O)c3ccccc3)nc(=O)n(Cc3c(F)cccc3C(F)(F)F)c2C)c1F", "EC50": 39},
      {"compound": "COc1cccc(-c2c(SC[C@H](NCCCC(=O)O)c3ccccc3)nc(=O)n(Cc3c(F)cccc3C(F)(F)F)c2C)c1F", "EC50": 110},
      {"compound": "COc1cccc(-c2c(C)n(Cc3c(F)cccc3C(F)(F)F)c(=O)n(C[C@H](NCCCC(=O)O)c3ccccc3)c2=O)c1F", "note": "[ELAGOLIX]", "EC50": 0.6}
    ]}
  ]
}
